Patent US20070078097A1, “Method for treating intermittent claudication comprising the administration of propionyl L-carnitine and a concomitant physical training” (priority 2005, published 2007)

Key:
[1] = tested on: patients with Intermittent Claudication (Leriche-Fontaine Class II); experiment: Maximum walking distance on treadmill, three phase III placebo-controlled studies; assay type: in vivo, human; details: for MWD at Month 6/Endpoint, Mean / MWD at Month 6/Endpoint, Median: PLC 2 g/day oral, 3 km/h; for MWD Change from Baseline to Endpoint, Mean / MWD Change from Baseline to Endpoint, Median: PLC 2 g/day
Excerpt: (§1) Three parallel, randomized, double-blind, placebo-controlled, phase III studies in patients with Intermittent Claudication (Leriche-Fontaine Class II) represent the basis for the above considerations. They are study ST 261 201 90 INT (hereinafter referred to as the European study); study ST 94 301 (hereinafter referred to as the Hiatt study); and ST 93 301, hereinafter referred to as the Porter study).
(§2) Diagnosis and main criteria for inclusion for these studies were similar, as follows: intermittent claudication of ascertained vascular origin; age between 40 and 80 years; lesions at iliac-femoral and/or femoro-popliteal level confirmed by angiographic or Doppler examination; no pain at rest (Leriche-Fontaine Class III) or ulcerative lesions (Leriche-Fontaine Class IV); history of claudication >1 year; dietary regime and alcohol intake stable during the study. All patients were strongly encouraged to stop smoking and exercise actively. The latter recommendation was to be achieved either through a supervised, vascular rehabilitation-based program, or via an unsupervised, home-based program.
A total of 316 subjects (PLC, 153 subjects; placebo, 163 subjects) were randomized in the primary intention-to-treat population (ITT) of the European study, which was conducted in 39 centers in West and East Europe, and tested PLC (2 g/day) for 12 months vs. placebo. Patients had to have a maximum walking distance (MWD) at baseline between 50-400 m. and variability over the three treadmill tests carried-out at baseline of ≦25%.
A total of 161 subjects (PLC, 85 subjects; placebo, 76 subjects) were randomized in the ITT population of the Hiatt study, which was performed in 10 centers in the USA and Russia, and tested PLC (2 g/day for 6 months) versus placebo.
A total of 155 subjects (ITT population: PLC, 80 subjects; placebo, 75 subjects) were randomized in the 6-month, Porter study, which was conducted in 16 US centers and tested PLC 2 g/day vs. placebo as its primary target population. All randomized patients had baseline MWD between 50-250 m and variability ≦25%.
These phase III studies evaluated physical performance as their primary efficacy parameter. This was assessed by the maximum walking capacity of patients on a treadmill: the European study used a fixed treadmill with 7% slope and 3 km/hour speed; the Hiatt study used a graded treadmill, starting at 0% slope and increasing by 2% every 2 minutes, with a 2 mph speed; the Porter study used a fixed treadmill with 12% slope and 2 mph speed.
Given the non-normality of response distributions for MWD, the comparison between PLC and placebo-treated patients was based on a non-parametric test, i.e., the Cochrane-Mantel-Haenszel test on the within-center, standardized mid-ranks (MODRIDITS) of changes over baseline, stratified by site.

platelet = details: literature (Pignatelli et al. 2003); cited from earlier work
[2] = tested on: patients with Intermittent Claudication (Leriche-Fontaine Class II); experiment: Quality of life questionnaires (PAD-related, SF-36, WIQ), O'Brien global score; assay type: in vivo, human
Excerpt: as §1, §2
The above studies also assessed quality of life (QoL) as their main secondary efficacy parameter: the European study used the ad-hoc validated PAD-related questionnaire, while the Hiatt and Porter studies used both the very well-known and validated Health Status Survey-Short Form 36 (SF-36) and the Walking Impairment Questionnaire (WIQ).
Similar results were obtained also when considering QoL. Since several questionnaires were used in each study, a global summary statistic was used in order to deal with this issue, as well as with the multiplicity of domains present in each of these questionnaires, i.e., the O'Brien test.

[3] = tested on: patients with claudication; details: orally given; randomised placebo-controlled trials of the literature; cited from earlier work
claudicant patients = details: six patients; intravenous 3 g bolus followed by infusion of 2 mg/Kg/man for 30 minutes; Brevetti et al. 1988; cited from earlier work
[4] = ITT with concomitant physical exercise, N = 54, P-value vs placebo 0.000
[5] = ITT without concomitant physical exercise, N = 264, P-value vs placebo 0.777
[6] = ITT with concomitant physical exercise, PLC N = 54, P-value vs placebo <0.001
[7] = ITT without concomitant physical exercise, PLC N = 261, P-value vs placebo 0.142

SMILES	MWD at Month 6/Endpoint, Mean ([1]; ITT with concomitant physical exercise, N = 54, converted to treadmill 7% slope, baseline mean 249.7) [m]	MWD at Month 6/Endpoint, Median ([1]; ITT with concomitant physical exercise, N = 54, treadmill 7% slope, baseline median 239.2) [m]	MWD Change from Baseline to Endpoint, Mean [1, 4] [m]	MWD Change from Baseline to Endpoint, Median [1, 4] [m]	MWD at Month 6/Endpoint, Mean ([1]; ITT without concomitant physical exercise, N = 264, treadmill 7% slope, baseline mean 205.6) [m]	MWD at Month 6/Endpoint, Median ([1]; ITT without concomitant physical exercise, N = 264, treadmill 7% slope, baseline median 171.7) [m]	MWD Change from Baseline to Endpoint, Mean [1, 5] [m]	MWD Change from Baseline to Endpoint, Median [1, 5] [m]	net PLC advantage over placebo in exercise performance at endpoint ([1]; overall ITT subjects of the three studies, p=0.08) [m]	arachidonic acid accumulation in the phospholipids of platelet membrane (platelet)	platelet thromboxane A2 and O2 formation (platelet)	Change in O'Brien scores for QoL questionnaires, Baseline to Endpoint, Mean [2, 6]	Change in O'Brien scores for QoL questionnaires, Baseline to Endpoint, Median [2, 6]	Change in O'Brien scores for QoL questionnaires, Baseline to Endpoint, Mean [2, 7]	Change in O'Brien scores for QoL questionnaires, Baseline to Endpoint, Median [2, 7]	QoL at endpoint compared to the placebo group ([2]; overall ITT subjects, p<0.001)	walking distance in patients with claudication [3]	increase of venous lactate induced by walking test (claudicant patients)
CCC(=O)O[C@H](CC(=O)[O-])C[N+](C)(C)C [PLC, propionyl L-carnitine]	410.8	400.9	161.1	154.8	325.3	225.5	119.7	36.6	18.2	inhibits	reduction	0.56	0.54	0.51	0.50	significant improvement	significant increase	–
C[N+](C)(C)C[C@H](O)CC(=O)[O-] [levocarnitine, L-carnitine]	–	–	–	–	–	–	–	–	–	–	–	–	–	–	–	–	significant increase	lowered
